Assay results as given in ChEMBL document CHEMBL4002566, “S-substituted 3,5-dinitrophenyl 1,3,4-oxadiazole-2-thiols and tetrazole-5-thiols as highly efficient antitubercular agents” (Eur J Med Chem, 2017).

Tests used:
[1] = Cytotoxicity against human HepG2 cells assessed as cell viability at 30 uM after 48 hrs by MTS assay relative to control; type: cell-based; details: read-out: Activity
[2] = Cytotoxicity against MDCK cells assessed as cell viability at 30 uM after 48 hrs by MTS assay relative to control; type: cell-based, Canis lupus familiaris; details: dog, read-out: Activity
Mycobacterium avium [3] = experiment: Antimycobacterial activity against Mycobacterium avium CNCTC My 330/88 after 21 days by micromethod; type: functional; details: CNCTC My 330/88, 504 h
Mycobacterium kansasii [4] = experiment: Antimycobacterial activity against Mycobacterium kansasii CNCTC My 235/80 after 14 days by micromethod; type: functional; details: CNCTC My 235/80, 336 h
[5] = Cytotoxicity against human A431 cells assessed as cell viability at 30 uM after 48 hrs by MTS assay relative to control; type: cell-based, A-431; details: read-out: Activity
[6] = tested on: Mycobacterium tuberculosis; experiment: Antimycobacterial activity against Mycobacterium tuberculosis CNCTC My 331/88 after 14 days by micromethod; type: functional; details: CNCTC My 331/88, 336 h
A-431 = experiment: Cytotoxicity against human A431 cells assessed as cell viability after 48 hrs by MTS assay; type: cell-based; details: A-431, 48 h
[7] = tested on: Mycobacterium tuberculosis; experiment: Antimycobacterial activity against Mycobacterium tuberculosis CNCTC My 331/88 after 21 days by micromethod; type: functional; details: CNCTC My 331/88, 504 h
[8] = Selectivity index, ratio of IC50 for human HepG2 cells to MIC for Mycobacterium tuberculosis; type: toxicity; details: read-out: Selectivity Index
Mycobacterium kansasii [9] = experiment: Antimycobacterial activity against Mycobacterium kansasii 6509/96 clinical isolate after 21 days by micromethod; type: functional; details: 6509/96, 504 h
Mycobacterium kansasii [10] = experiment: Antimycobacterial activity against Mycobacterium kansasii CNCTC My 235/80 after 21 days by micromethod; type: functional; details: CNCTC My 235/80, 504 h
Mycobacterium kansasii [11] = experiment: Antimycobacterial activity against Mycobacterium kansasii 6509/96 clinical isolate after 7 days by micromethod; type: functional; details: 6509/96, 168 h
Mycobacterium kansasii [12] = experiment: Antimycobacterial activity against Mycobacterium kansasii CNCTC My 235/80 after 7 days by micromethod; type: functional; details: CNCTC My 235/80, 168 h
Huh-7 = experiment: Cytotoxicity against human HuH7 cells assessed as cell viability after 48 hrs by MTS assay; type: cell-based; details: Huh-7, 48 h
Mycobacterium avium [13] = experiment: Antimycobacterial activity against Mycobacterium avium CNCTC My 330/88 after 14 days by micromethod; type: functional; details: CNCTC My 330/88, 336 h
HepG2 = experiment: Cytotoxicity against human HepG2 cells assessed as cell viability after 48 hrs by MTS assay; type: cell-based; details: HepG2, 48 h
[14] = Cytotoxicity against human HuH7 cells assessed as cell viability at 30 uM after 48 hrs by MTS assay relative to control; type: cell-based, Huh-7; details: read-out: Activity
MDCK = experiment: Cytotoxicity against MDCK cells assessed as cell viability after 48 hrs by MTS assay; type: cell-based; details: Canis lupus familiaris
Mycobacterium kansasii [15] = experiment: Antimycobacterial activity against Mycobacterium kansasii 6509/96 clinical isolate after 14 days by micromethod; type: functional; details: 6509/96, 336 h
Candida albicans [16] = experiment: Antifungal activity against Candida albicans ATCC 44859 after 24 hrs by broth microdilution method; type: functional; details: ATCC 44859, 24 h
Klebsiella pneumoniae [17] = experiment: Antibacterial activity against Klebsiella pneumoniae HK11750/08 after 48 hrs by broth microdilution method; type: functional; details: HK11750/08, 48 h
[18] = tested on: Trichophyton mentagrophytes; experiment: Antifungal activity against Trichophyton mentagrophytes 445 after 72 hrs by broth microdilution method; type: functional; details: Trichophyton mentagrophytes, 445, 72 h
Aspergillus fumigatus [19] = experiment: Antifungal activity against Aspergillus fumigatus 231 after 24 hrs by broth microdilution method; type: functional; details: Aspergillus fumigatus, 231, 24 h
[20] = tested on: Staphylococcus epidermidis; experiment: Antibacterial activity against Staphylococcus epidermidis HK6996/08 after 24 hrs by broth microdilution method; type: functional; details: HK6996/08, 24 h
Candida tropicalis [21] = experiment: Antifungal activity against Candida tropicalis 156 after 24 hrs by broth microdilution method; type: functional; details: Candida tropicalis, 156, 24 h
[22] = tested on: Staphylococcus epidermidis; experiment: Antibacterial activity against Staphylococcus epidermidis HK6996/08 after 48 hrs by broth microdilution method; type: functional; details: HK6996/08, 48 h
Lichtheimia corymbifera [23] = experiment: Antifungal activity against Absidia corymbifera 272 after 24 hrs by broth microdilution method; type: functional; details: Lichtheimia corymbifera, 272, 24 h
Staphylococcus aureus [24] = experiment: Antibacterial activity against methicillin-resistant Staphylococcus aureus HK5996/08 after 48 hrs by broth microdilution method; type: functional; details: HK5996/08, 48 h
Nakaseomyces glabratus [25] = experiment: Antifungal activity against Candida glabrata 20/I after 24 hrs by broth microdilution method; type: functional
Trichosporon asahii [26] = experiment: Antifungal activity against Trichosporon asahii 1188 after 24 hrs by broth microdilution method; type: functional; details: Trichosporon asahii, 1188, 24 h
Lichtheimia corymbifera [27] = experiment: Antifungal activity against Absidia corymbifera 272 after 48 hrs by broth microdilution method; type: functional; details: Lichtheimia corymbifera, 272, 48 h
Pseudomonas aeruginosa [28] = experiment: Antibacterial activity against Pseudomonas aeruginosa ATCC 9027 after 48 hrs by broth microdilution method; type: functional; details: ATCC 9027, 48 h
Staphylococcus aureus [29] = experiment: Antibacterial activity against methicillin-resistant Staphylococcus aureus HK5996/08 after 24 hrs by broth microdilution method; type: functional; details: HK5996/08, 24 h
Klebsiella pneumoniae [30] = experiment: Antibacterial activity against extended spectrum beta-lactamase producing Klebsiella pneumoniae HK14368/08 after 24 hrs by broth microdilution method; type: functional; details: HK14368/08, 24 h
Candida tropicalis [31] = experiment: Antifungal activity against Candida tropicalis 156 after 48 hrs by broth microdilution method; type: functional; details: Candida tropicalis, 156, 48 h
Trichosporon asahii [32] = experiment: Antifungal activity against Trichosporon asahii 1188 after 48 hrs by broth microdilution method; type: functional; details: Trichosporon asahii, 1188, 48 h
Enterococcus sp. [33] = experiment: Antibacterial activity against Enterococcus sp. HK14365/08 after 24 hrs by broth microdilution method; type: functional; details: HK14365/08, 24 h
Escherichia coli [34] = experiment: Antibacterial activity against Escherichia coli ATCC 8739 after 48 hrs by broth microdilution method; type: functional; details: ATCC 8739, 48 h
Candida albicans [35] = experiment: Antifungal activity against Candida albicans ATCC 44859 after 48 hrs by broth microdilution method; type: functional; details: ATCC 44859, 48 h
Aspergillus fumigatus [36] = experiment: Antifungal activity against Aspergillus fumigatus 231 after 48 hrs by broth microdilution method; type: functional; details: Aspergillus fumigatus, 231, 48 h
Escherichia coli [37] = experiment: Antibacterial activity against Escherichia coli ATCC 8739 after 24 hrs by broth microdilution method; type: functional; details: ATCC 8739, 24 h
Staphylococcus aureus [38] = experiment: Antibacterial activity against Staphylococcus aureus ATCC 6538 after 24 hrs by broth microdilution method; type: functional; details: ATCC 6538, 24 h
Klebsiella pneumoniae [39] = experiment: Antibacterial activity against Klebsiella pneumoniae HK11750/08 after 24 hrs by broth microdilution method; type: functional; details: HK11750/08, 24 h
Klebsiella pneumoniae [40] = experiment: Antibacterial activity against extended spectrum beta-lactamase producing Klebsiella pneumoniae HK14368/08 after 48 hrs by broth microdilution method; type: functional; details: HK14368/08, 48 h
Nakaseomyces glabratus [41] = experiment: Antifungal activity against Candida glabrata 20/I after 48 hrs by broth microdilution method; type: functional
[42] = tested on: Trichophyton mentagrophytes; experiment: Antifungal activity against Trichophyton mentagrophytes 445 after 120 hrs by broth microdilution method; type: functional; details: Trichophyton mentagrophytes, 445, 120 h
Pichia kudriavzevii [43] = experiment: Antifungal activity against Candida krusei E28 after 48 hrs by broth microdilution method; type: functional; details: E28, 48 h
Enterococcus sp. [44] = experiment: Antibacterial activity against Enterococcus sp. HK14365/08 after 48 hrs by broth microdilution method; type: functional; details: HK14365/08, 48 h
Pseudomonas aeruginosa [45] = experiment: Antibacterial activity against Pseudomonas aeruginosa ATCC 9027 after 24 hrs by broth microdilution method; type: functional; details: ATCC 9027, 24 h
Staphylococcus aureus [46] = experiment: Antibacterial activity against Staphylococcus aureus ATCC 6538 after 48 hrs by broth microdilution method; type: functional; details: ATCC 6538, 48 h
Pichia kudriavzevii [47] = experiment: Antifungal activity against Candida krusei E28 after 24 hrs by broth microdilution method; type: functional; details: E28, 24 h

O=[N+]([O-])c1cc(-c2nnc(SCc3cccc(Cl)c3)o2)cc([N+](=O)[O-])c1
0.03 µM: MIC [6] | MIC (Mycobacterium kansasii [11])
0.06 µM: MIC (Mycobacterium kansasii [4]) | MIC [7] | MIC (Mycobacterium kansasii [9]) | MIC (Mycobacterium kansasii [10]) | MIC (Mycobacterium kansasii [12]) | MIC (Mycobacterium kansasii [15])
> 1000: selectivity ratio [8]
> 30 µM: IC50 (A-431) | IC50 (Huh-7) | IC50 (HepG2) | IC50 (MDCK)
158%: viability at 48 h, 30 µM [14]
105%: viability at 48 h, 30 µM [2] | viability at 48 h, 30 µM [5]
8 µM: MIC (Mycobacterium avium [3])
4 µM: MIC (Mycobacterium avium [13])
129%: viability at 48 h, 30 µM [1]

O=[N+]([O-])c1cc(-c2nnc(SCc3ccc(Cl)c(Cl)c3)o2)cc([N+](=O)[O-])c1
153%: viability at 48 h, 30 µM [14]
126%: viability at 48 h, 30 µM [5]
125%: viability at 48 h, 30 µM [1]
> 30 µM: IC50 (A-431) | IC50 (Huh-7) | IC50 (HepG2) | IC50 (MDCK)
> 125 µM: MIC (Candida albicans [16]) | MIC (Klebsiella pneumoniae [17]) | MIC [18] | MIC (Aspergillus fumigatus [19]) | MIC [20] | MIC (Candida tropicalis [21]) | MIC [22] | MIC (Lichtheimia corymbifera [23]) | MIC (Staphylococcus aureus [24]) | MIC (Nakaseomyces glabratus [25]) | MIC (Trichosporon asahii [26]) | MIC (Lichtheimia corymbifera [27]) | MIC (Pseudomonas aeruginosa [28]) | MIC (Staphylococcus aureus [29]) | MIC (Klebsiella pneumoniae [30]) | MIC (Candida tropicalis [31]) | MIC (Trichosporon asahii [32]) | MIC (Enterococcus sp. [33]) | MIC (Escherichia coli [34]) | MIC (Candida albicans [35]) | MIC (Aspergillus fumigatus [36]) | MIC (Escherichia coli [37]) | MIC (Staphylococcus aureus [38]) | MIC (Klebsiella pneumoniae [39]) | MIC (Klebsiella pneumoniae [40]) | MIC (Nakaseomyces glabratus [41]) | MIC [42] | MIC (Pichia kudriavzevii [43]) | MIC (Enterococcus sp. [44]) | MIC (Pseudomonas aeruginosa [45]) | MIC (Staphylococcus aureus [46]) | MIC (Pichia kudriavzevii [47])
32 µM: MIC (Mycobacterium avium [3])
> 1000: selectivity ratio [8]
16 µM: MIC (Mycobacterium avium [13])
91%: viability at 48 h, 30 µM [2]
0.03 µM: MIC (Mycobacterium kansasii [4]) | MIC [6] | MIC [7] | MIC (Mycobacterium kansasii [9]) | MIC (Mycobacterium kansasii [10]) | MIC (Mycobacterium kansasii [11]) | MIC (Mycobacterium kansasii [12]) | MIC (Mycobacterium kansasii [15])

CN[C@H](CC(C)C)C(=O)N[C@H]1C(=O)N[C@@H](CC(N)=O)C(=O)N[C@H]2C(=O)N[C@H]3C(=O)N[C@H](C(=O)N[C@H](C(=O)O)c4cc(O)cc(O)c4-c4cc3ccc4O)[C@H](O)c3ccc(c(Cl)c3)Oc3cc2cc(c3O[C@@H]2O[C@H](CO)[C@@H](O)[C@H](O)[C@H]2O[C@H]2C[C@](C)(N)[C@H](O)[C@H](C)O2)Oc2ccc(cc2Cl)[C@H]1O [VANCOMYCIN]
0.7 µM: MIC (Enterococcus sp. [33])
0.35 µM: MIC [20] | MIC (Staphylococcus aureus [29]) | MIC (Staphylococcus aureus [38])

C[C@@H]1[C@H](O)[C@@H](C)/C=C/C=C/C=C/C=C/C=C/C=C/C=C/[C@H](O[C@@H]2O[C@H](C)[C@@H](O)[C@H](N)[C@@H]2O)C[C@@H]2O[C@](O)(C[C@@H](O)C[C@@H](O)[C@H](O)CC[C@@H](O)C[C@@H](O)CC(=O)O[C@H]1C)C[C@H](O)[C@H]2C(=O)O [AMPHOTERICIN B]
0.27 µM: MIC (Trichosporon asahii [26])
1 µM: MIC (Lichtheimia corymbifera [23]) | MIC (Pichia kudriavzevii [47])
0.54 µM: MIC (Candida albicans [16]) | MIC [18] | MIC (Aspergillus fumigatus [19]) | MIC (Candida tropicalis [21]) | MIC (Nakaseomyces glabratus [25])
